From US20240238232A1, “COMPOSITIONS AND METHODS FOR THE REDUCTION OR TREATMENT OF INSULIN RESISTANCE AND METABOLIC CONDITIONS” (AXCELLA HEALTH INC., priority 2018, published 2024) come the findings set out here.

Assay [1] has as its system α-smooth muscle actin (αSMA), activated hepatic stellate cells. Briefly: α-smooth muscle actin staining of liver sections (activated hepatic stellate cells) in STAM mice, Example 2. Type of assay: in vivo, mouse. The conditions noted are these: A-1 1500 mg/kg twice daily, OCA 30 mg/kg once daily. As to the method: (§1) Amino Acid Composition A-1 and Obeticholic acid (6α-ethyl-chenodeoxycholic acid; “OCA”) were tested for their ability to treat NASH in the STAM™ model (Stelic Institute & Co., Tokyo, Japan; Saito K. et al., 2015 Sci Rep 5:12466). Two additional groups of normal C57BL/6 mice fed standard chow and vehicle treated STAM™ mice were included as controls. All animals receiving treatment or vehicle were treated starting at 6 weeks until 9 weeks of age. Compounds were administered via oral gavage, with a dose volume of 10 ml/kg. Amino Acid Composition A-1 was administered twice daily at a dose of 1500 mg/kg, and OCA was administered once daily at a dose of 30 mg/kg.
(§2) Amino Acid Composition A-1, OCA and Vehicle (described below) were administered by oral route in a volume of 10 mL/kg. Amino Acid Composition A-1 was solubilized in deionized water to 150 mg/ml (10 X). OCA (Advanced ChemBlocks Inc.) was resuspended in 0.5% methycellulose in water to 3 mg/ml (10 X). Amino Acid Composition A-1 was administered at a dose of 1500 mg/kg twice daily (9 am and 7 pm). OCA was administered at a dose of 30 mg/kg once daily (9 am).
Liver sections of all mice were stained for the marker α-smooth muscle actin (αSMA) to identify activated hepatic stellate cells. Images were quantified using the percent of positively stained area was used as a measure of stellate cell activation. […]

A further assay relates to STAM™ model (NASH). Put plainly: NAFLD activity score (HE staining, Kleiner criteria) in STAM mice, Example 2. In kind it is in vivo, mouse. Also on record: key to NAFLD Activity Score (NAS), mean / NAFLD Activity Score: raw data: NAS = steatosis (0-3) + inflammation (0-2) + ballooning (0-2); key to NAFLD Activity: Steatosis Score, mean / NAFLD Activity: Steatosis Score: raw data: steatosis grade 0-3 (Kleiner criteria). As to conditions: A-1 1500 mg/kg twice daily, OCA 30 mg/kg once daily. As to the method: as §1
STAM™ is a model for non-alcoholic steatohepatitis (NASH) and hepatocellular carcinoma (HCC), developed by SMC Laboratories, Inc. and created by the combination of chemical and dietary interventions using C57BL/6 mice (Saito K. et al., 2015 Sci Rep 5:12466). Mice are treated with a low dose of streptozotocin at birth and fed a high fat diet starting at 4 weeks. Evidence of fatty liver is present by 5 weeks, followed by NASH by 7 weeks and fibrosis by 9 weeks.
NASH was induced in 53 male mice by a single subcutaneous injection of 200 μg streptozotocin (STZ, Sigma-Aldrich, USA) solution 2 days after birth and feeding with high fat diet (HFD, 57 kcal % fat, Cat #HFD32, CLEA Japan, Japan) after 4 weeks of age.
as §2
Liver samples from mice in Group 2 (Vehicle), 3 (Amino Acid Composition A-1) and 4 (OCA) were used for the following assays. For HE staining, sections were cut from paraffin blocks of liver tissue prefixed in Bouin's solution and stained with Lillie-Mayer's Hematoxylin (Muto Pure Chemicals Co., Ltd., Japan) and eosin solution (Wako Pure Chemical Industries). NAFLD Activity score (NAS) was calculated according to the criteria of Kleiner (Kleiner D. E. et al., Hepatology, 2005; 41:1313).
The non-alcoholic fatty liver disease (NAFLD) activity score was assessed via histological analysis and grading of H&E stained liver sections from each animal. This score is the sum of three individual scores that grade the degree of steatosis (0-3), inflammation (0-2), and hepatocyte ballooning (0-2). All tissues were graded using the scoring criteria of Kleiner et al. (Kleiner et al. Hepatology. 2005; 41(6): 1313-21). Data are mean±standard deviation (stdev). […] Both Amino Acid Composition A-1 and OCA were statistically different from vehicle for NAFLD Activity Score when compared using Dunnett's multiple comparisons test (Amino Acid Composition A-1 p=0.0001, OCA p=0.0001).

A further assay concerns FATZO mouse model. Briefly: Body weight, liver weight and clinical observations in FATZO mice on WDF, Example 5. Type of assay: in vivo. The conditions noted are these: oral gavage 4 weeks, LIVRQNAC 3000 mg/kg, LIVRQNAC+G 3,885 mg/kg, LRQNAC 2,469 mg/kg BID, OCA QD. An excerpt: NASH was induced in 60 male FATZO mice by a western diet (Research Diet #D12079B; fat 40% kcal, protein 17% kcal, carbohydrate 43% kcal) supplemented with 500 fructose in the drinking water (WDF) during a 16 week induction phase. Diets and water were available ad libitum. Littermate control male FATZO mice fed with a control diet (n=6, Purina #5008; fat 17% kcal, protein 27% kcal, carbohydrate 56% kcal) and sterile water were set up for control purpose. Mice were housed in plastic cages with microisolator. Sterilized bedding was replaced once a week. Mice were housed three per cage and maintained on a twelve hour light cycle throughout study duration. Room temperature was monitored daily and maintained at 22-25° C. Body weight was recorded every week during the induction phase. […]
[…], […]+G, LRQNAC, OCA and Vehicle were administered by oral gavage at a volume of 10 mL/kg throughout the study. Dosages were calculated by daily body weight. […]
The viability, clinical signs and behavior were monitored daily. Body weight was recorded daily during the dosing period. […]
Animals were anesthetized with CO2 inhalation and exsanguinated via cardiac puncture for euthanasia. […] Organ weights (total liver, gonadal fat pads) were recorded. […]

Where [2] appears, read: STAM mice, oral, 6 to 9 weeks of age.

“And” between values parts separate entries of the source, which are not always exact repeats. Identical values can stand only once.

Consider `CC[C@H]1[C@@H](O)[C@@H]2[C@H](CC[C@]3(C)[C@@H]([C@H](C)CCC(=O)O)CC[C@@H]23)[C@@]2(C)CC[C@@H](O)C[C@@H]12` [OCA, 6α-ethyl-chenodeoxycholic acid], for which, in assay [1] (setting [2]), the “Activated hepatic stellate cells (mean positively stained area, α-smooth muscle actin)” value is 1.562+/−0.31% and 1.562%. Moreover, the “Activated hepatic stellate cells (positively stained area, α-smooth muscle actin): raw data” value in assay [1] (individual STAM mice) was 1.51% and 1.49% (2×) and 1.17% and 1.13% and 2.03% and 1.87% and 1.97% and 1.46%. Also, in the assay with STAM™ model (NASH) (setting [2]), the “NAFLD Activity Score (NAS), mean” value was 2.9+/−0.74 and 2.9; the “NAFLD Activity: Ballooning Score, mean” value is 0.3+−0.48 and 0.3; the “NAFLD Activity: Inflammation Score, mean” value turned out to be 1.8; the “NAFLD Activity: Steatosis Score, mean” value amounted to 0.8. Besides, in the assay on STAM™ model (NASH) (individual STAM mice), the “NAFLD Activity Score: raw data” value was 2 (3×) and 4 (2×) and 3 (5×); the “NAFLD Activity: Ballooning Score: raw data” value was 0 (7×) and 1 (3×); the “NAFLD Activity: Inflammation Score: raw data” value is 1 (4×) and 2 (4×) and 3 (2×); the “NAFLD Activity: Steatosis Score: raw data” value is 1 (8×) and 0 (2×). In the assay with FATZO mouse model, the “Liver weight (% body weight)” value came to 6.81±0.2 % body weight.
